The numbers were not newly measured in US20240197753A1, “PHARMACEUTICAL COMPOSITION FOR IMPROVING CARDIAC FUNCTION” (OSAKA UNIVERSITY, priority 2021, published 2024), which cites them from elsewhere.

Consider `O=C(O)COc1cccc2c1CCC=C2CCO/N=C(\c1ccccc1)c1cccnc1` [ONO-1301, ({5-[2-({[(1E)-phenyl(pyridin-3-yl)methylene]amino}oxy)ethyl]-7,8-dihydronaphthalen-1-yl}oxy)acetic acid], for which, for the setting “oral dosing phase I study”, the “no-observed-adverse-effect level (blood ONO-1301 concentration)” value is 23.69 ng/mL and the “no-observed-effect level (blood ONO-1301 concentration)” value is 15.61 ng/mL. The “Safety margin (efficacy: platelet aggregation inhibition; side effects: epigastric pain, fever, cold sweat, diarrhea, etc.)” value (oral, Phase I clinical trials) is on record as “narrow”.
